Among the data in ChEMBL document CHEMBL1255512, “Pyrazolo[1,5-a]pyrimidine acetamides: 4-Phenyl alkyl ether derivatives as potent ligands for the 18 kDa translocator protein (TSPO)” (Bioorg Med Chem Lett, 2010) are Ki and inhibition values, retold here.

Assay [1] in a line: Displacement of [3H]Ro151788 from CBR in rat […]. Type of assay: tissue-based. (In general: In a radioligand displacement assay an active substance lowers the binding of a labelled ligand.)
For assay [2], the target named is D(3) dopamine receptor (Homo sapiens) (UniProt P35462). Nature of the assay: Inhibition of D3 dopamine receptor at 10 uM.
D(3) dopamine receptor (Homo sapiens), sequence (P35462 whole entry): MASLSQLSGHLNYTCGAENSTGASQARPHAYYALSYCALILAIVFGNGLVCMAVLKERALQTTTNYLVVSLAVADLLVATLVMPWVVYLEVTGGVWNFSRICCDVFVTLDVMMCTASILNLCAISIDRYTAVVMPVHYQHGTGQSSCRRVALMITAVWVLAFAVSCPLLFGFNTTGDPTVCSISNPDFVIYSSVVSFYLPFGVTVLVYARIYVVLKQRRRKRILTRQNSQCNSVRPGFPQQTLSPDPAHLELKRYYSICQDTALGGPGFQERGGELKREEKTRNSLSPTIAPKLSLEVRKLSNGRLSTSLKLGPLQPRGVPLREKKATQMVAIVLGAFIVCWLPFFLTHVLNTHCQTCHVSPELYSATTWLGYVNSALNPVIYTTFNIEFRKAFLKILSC
For assay [3], the target named is T1, Muscarinic acetylcholine receptor M1 (Homo sapiens) (UniProt P11229).
T1 sequence (whole entry): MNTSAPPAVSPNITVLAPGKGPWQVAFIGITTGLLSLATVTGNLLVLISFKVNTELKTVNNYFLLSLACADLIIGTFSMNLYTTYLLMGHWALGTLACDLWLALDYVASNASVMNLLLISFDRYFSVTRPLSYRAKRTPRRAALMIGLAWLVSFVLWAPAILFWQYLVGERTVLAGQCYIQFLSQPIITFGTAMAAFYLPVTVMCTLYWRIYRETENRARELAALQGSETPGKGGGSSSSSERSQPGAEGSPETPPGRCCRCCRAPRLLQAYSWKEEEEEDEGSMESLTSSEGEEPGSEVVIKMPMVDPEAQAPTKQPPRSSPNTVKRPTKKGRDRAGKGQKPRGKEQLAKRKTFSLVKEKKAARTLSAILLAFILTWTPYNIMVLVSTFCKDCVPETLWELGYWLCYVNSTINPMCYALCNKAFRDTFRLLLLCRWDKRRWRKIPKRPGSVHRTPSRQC
Nature of the assay: Inhibition of M1 muscarinic receptor at 10 uM.

In assay [4] the target is T2, Muscarinic acetylcholine receptor M2 (Homo sapiens) (UniProt P08172).
T2 sequence (whole entry): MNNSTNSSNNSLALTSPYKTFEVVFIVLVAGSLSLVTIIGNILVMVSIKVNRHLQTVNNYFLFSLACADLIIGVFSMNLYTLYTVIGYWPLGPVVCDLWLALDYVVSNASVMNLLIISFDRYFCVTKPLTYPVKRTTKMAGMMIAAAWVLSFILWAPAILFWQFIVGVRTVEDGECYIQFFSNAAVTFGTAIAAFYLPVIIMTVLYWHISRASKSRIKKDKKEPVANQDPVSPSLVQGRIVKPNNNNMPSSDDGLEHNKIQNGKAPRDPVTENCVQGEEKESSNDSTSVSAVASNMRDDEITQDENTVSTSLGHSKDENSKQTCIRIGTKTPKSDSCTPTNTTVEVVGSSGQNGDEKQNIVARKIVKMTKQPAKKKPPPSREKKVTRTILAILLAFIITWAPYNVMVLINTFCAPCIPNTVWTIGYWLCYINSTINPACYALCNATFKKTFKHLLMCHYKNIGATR
Description: Inhibition of M2 muscarinic receptor at 10 uM.

Assay [5] addresses 5-hydroxytryptamine receptor 5A (Homo sapiens) (UniProt P47898). Nature of the assay: Inhibition of 5-HT5A receptor at 10 uM.
Assay [6] has as its target 5-hydroxytryptamine receptor 6 (Homo sapiens) (UniProt P50406). Nature of the assay: Inhibition of 5-HT6 receptor at 10 uM.
Assay [7] concerns the target Histamine H1 receptor (Homo sapiens) (UniProt P35367). Nature of the assay: Inhibition of H1 receptor at 10 uM.
Assay [8] concerns the target T3, D(4) dopamine receptor (Homo sapiens) (UniProt P21917).
T3 sequence (whole entry): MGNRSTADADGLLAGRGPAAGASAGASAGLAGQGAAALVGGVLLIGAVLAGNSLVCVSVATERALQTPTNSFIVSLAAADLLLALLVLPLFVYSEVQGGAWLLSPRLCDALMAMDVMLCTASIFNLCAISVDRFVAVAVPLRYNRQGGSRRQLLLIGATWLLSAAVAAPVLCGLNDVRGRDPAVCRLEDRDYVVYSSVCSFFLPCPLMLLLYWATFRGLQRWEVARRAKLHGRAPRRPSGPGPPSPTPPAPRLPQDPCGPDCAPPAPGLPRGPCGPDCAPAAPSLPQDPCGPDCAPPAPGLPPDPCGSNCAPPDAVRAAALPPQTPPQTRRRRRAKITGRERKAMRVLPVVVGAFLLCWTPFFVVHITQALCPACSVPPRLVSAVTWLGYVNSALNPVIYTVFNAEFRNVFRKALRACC
Nature of the assay: Inhibition of D4 dopamine receptor at 10 uM.

Assay [9] deals with T4, 5-hydroxytryptamine receptor 1A (Homo sapiens) (UniProt P08908).
T4 sequence (whole entry): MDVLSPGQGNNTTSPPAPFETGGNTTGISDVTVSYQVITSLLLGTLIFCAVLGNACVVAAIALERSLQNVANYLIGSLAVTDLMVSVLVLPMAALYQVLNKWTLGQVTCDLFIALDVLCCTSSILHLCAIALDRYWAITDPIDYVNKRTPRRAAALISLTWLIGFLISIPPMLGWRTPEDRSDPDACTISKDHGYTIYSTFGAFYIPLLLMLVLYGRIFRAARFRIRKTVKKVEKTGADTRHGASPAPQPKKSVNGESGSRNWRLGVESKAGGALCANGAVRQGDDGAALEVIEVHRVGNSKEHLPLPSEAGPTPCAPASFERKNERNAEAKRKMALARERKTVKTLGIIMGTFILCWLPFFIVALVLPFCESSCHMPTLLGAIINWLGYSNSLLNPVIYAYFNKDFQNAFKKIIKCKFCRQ
Description: Inhibition of 5-HT1A receptor at 10 uM.

Assay [10] addresses D(1B) dopamine receptor (Homo sapiens) (UniProt P21918). Description: Inhibition of D5 dopamine receptor at 10 uM.
Assay [11] has as its target T5, Alpha-2C adrenergic receptor (Homo sapiens) (UniProt P18825).
T5 sequence (whole entry): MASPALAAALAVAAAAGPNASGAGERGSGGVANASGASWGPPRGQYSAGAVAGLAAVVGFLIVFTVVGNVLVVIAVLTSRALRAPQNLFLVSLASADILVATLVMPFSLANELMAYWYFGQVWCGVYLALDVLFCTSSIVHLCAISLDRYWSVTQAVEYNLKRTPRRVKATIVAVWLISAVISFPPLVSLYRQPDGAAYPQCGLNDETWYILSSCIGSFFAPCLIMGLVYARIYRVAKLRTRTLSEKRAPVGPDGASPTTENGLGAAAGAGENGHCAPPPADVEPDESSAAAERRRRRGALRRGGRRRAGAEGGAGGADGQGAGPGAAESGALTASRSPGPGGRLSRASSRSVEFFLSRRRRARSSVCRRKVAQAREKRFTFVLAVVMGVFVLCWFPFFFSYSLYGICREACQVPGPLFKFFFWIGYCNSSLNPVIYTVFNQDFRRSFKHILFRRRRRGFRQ
Nature of the assay: Inhibition of Alpha-2C adrenergic receptor at 10 uM.

The target of assay [12] is Histamine H4 receptor (Homo sapiens) (UniProt Q9H3N8). Description: Inhibition of H4 receptor at 10 uM.
Histamine H4 receptor (Homo sapiens), sequence (Q9H3N8 whole entry): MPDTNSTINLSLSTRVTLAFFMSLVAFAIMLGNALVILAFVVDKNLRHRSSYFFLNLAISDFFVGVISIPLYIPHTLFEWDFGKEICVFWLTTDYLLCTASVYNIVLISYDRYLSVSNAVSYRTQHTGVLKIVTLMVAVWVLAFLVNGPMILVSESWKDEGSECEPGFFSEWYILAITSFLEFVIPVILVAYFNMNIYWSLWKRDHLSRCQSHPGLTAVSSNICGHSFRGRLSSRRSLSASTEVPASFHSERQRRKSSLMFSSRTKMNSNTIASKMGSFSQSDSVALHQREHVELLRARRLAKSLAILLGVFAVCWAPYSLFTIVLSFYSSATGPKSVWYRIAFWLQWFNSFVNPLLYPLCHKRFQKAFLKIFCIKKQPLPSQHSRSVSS
Assay [13] has as its target 5-hydroxytryptamine receptor 7 (Homo sapiens) (UniProt P34969). Description: Inhibition of 5-HT7 receptor at 10 uM.
Assay [14] concerns the target Sodium-dependent serotonin transporter (Homo sapiens) (UniProt P31645). Nature of the assay: Inhibition of 5HT transporter at 10 uM.
Assay [15] deals with Beta-2 adrenergic receptor (Homo sapiens) (UniProt P07550). Nature of the assay: Inhibition of beta2 adrenergic receptor at 10 uM.
Beta-2 adrenergic receptor (Homo sapiens), sequence (P07550 whole entry, looked up): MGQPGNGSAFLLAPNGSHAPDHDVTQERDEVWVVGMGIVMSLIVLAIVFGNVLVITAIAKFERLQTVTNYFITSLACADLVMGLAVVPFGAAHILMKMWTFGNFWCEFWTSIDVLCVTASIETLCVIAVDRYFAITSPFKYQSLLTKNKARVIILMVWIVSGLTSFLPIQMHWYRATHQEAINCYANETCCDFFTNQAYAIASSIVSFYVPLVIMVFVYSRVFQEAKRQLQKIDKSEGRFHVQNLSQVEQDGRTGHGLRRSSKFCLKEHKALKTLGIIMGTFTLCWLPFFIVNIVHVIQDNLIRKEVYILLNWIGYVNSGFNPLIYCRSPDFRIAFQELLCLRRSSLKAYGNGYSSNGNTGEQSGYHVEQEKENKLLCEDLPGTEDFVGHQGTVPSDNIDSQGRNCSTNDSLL
Assay [16] deals with Sodium-dependent dopamine transporter (Homo sapiens) (UniProt Q01959). Description: Inhibition of dopamine transporter at 10 uM.
Sodium-dependent dopamine transporter (Homo sapiens), sequence (Q01959 whole entry): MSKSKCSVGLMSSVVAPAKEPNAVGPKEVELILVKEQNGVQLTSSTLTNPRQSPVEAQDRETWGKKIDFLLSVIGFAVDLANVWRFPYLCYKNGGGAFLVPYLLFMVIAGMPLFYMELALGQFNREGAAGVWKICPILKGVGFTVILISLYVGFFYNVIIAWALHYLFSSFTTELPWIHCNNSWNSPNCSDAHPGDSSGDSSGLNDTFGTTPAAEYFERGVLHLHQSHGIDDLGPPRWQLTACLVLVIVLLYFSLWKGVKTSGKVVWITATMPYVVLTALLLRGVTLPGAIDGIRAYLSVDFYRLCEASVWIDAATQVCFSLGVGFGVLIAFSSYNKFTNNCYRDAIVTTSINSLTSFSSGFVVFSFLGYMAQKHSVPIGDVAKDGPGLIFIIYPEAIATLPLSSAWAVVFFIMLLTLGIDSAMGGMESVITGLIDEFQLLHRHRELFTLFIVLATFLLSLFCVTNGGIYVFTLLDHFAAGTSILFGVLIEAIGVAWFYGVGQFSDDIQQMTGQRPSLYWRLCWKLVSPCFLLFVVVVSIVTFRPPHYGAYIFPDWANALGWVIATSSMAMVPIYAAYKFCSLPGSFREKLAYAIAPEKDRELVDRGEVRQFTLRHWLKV

The Ki is a dissociation constant, usually derived from enzyme kinetics or from competition with a known ligand. High values mean lower affinity, low ones higher affinity. For orientation: inhibition means the drop in the measured response relative to a control, in per cent. Read a low inhibition as a weak effect.

Histamine H1 receptor (Homo sapiens), sequence (P35367 whole entry): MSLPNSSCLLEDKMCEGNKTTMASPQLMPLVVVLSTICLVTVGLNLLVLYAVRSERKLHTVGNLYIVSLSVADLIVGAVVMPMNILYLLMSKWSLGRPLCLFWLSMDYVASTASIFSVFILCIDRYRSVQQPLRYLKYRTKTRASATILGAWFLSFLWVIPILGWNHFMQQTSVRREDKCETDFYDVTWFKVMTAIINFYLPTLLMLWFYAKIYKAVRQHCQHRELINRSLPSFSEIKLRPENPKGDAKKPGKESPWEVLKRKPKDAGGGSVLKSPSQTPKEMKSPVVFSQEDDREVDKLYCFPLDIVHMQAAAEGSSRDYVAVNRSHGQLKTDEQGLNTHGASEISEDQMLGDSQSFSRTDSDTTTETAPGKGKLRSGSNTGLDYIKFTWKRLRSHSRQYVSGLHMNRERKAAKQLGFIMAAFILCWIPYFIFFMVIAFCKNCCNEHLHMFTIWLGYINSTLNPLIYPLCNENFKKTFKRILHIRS
5-hydroxytryptamine receptor 6 (Homo sapiens), sequence (P50406 whole entry): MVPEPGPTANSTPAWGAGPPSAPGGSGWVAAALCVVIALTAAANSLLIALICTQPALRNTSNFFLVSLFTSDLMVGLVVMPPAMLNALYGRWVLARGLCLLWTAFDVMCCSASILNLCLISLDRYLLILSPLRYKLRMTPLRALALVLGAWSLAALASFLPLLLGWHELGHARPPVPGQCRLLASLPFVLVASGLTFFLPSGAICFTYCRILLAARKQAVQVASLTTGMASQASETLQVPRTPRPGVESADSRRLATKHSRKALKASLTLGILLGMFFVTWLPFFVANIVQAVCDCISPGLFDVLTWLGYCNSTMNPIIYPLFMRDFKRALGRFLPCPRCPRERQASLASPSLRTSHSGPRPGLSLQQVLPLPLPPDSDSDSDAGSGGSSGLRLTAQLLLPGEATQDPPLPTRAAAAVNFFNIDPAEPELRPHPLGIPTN
5-hydroxytryptamine receptor 7 (Homo sapiens), sequence (P34969 whole entry): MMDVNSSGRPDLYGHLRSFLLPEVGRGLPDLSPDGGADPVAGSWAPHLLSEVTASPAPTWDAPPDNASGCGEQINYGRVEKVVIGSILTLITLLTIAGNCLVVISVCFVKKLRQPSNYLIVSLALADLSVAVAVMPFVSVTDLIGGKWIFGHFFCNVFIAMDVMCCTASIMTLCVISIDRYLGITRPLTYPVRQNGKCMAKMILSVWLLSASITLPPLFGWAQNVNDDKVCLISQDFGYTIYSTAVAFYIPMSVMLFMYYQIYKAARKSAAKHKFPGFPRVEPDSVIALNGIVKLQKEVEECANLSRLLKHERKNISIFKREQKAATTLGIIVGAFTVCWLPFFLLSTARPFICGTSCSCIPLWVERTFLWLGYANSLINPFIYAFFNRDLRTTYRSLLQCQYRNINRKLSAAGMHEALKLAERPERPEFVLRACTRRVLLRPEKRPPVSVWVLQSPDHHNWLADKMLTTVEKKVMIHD
D(1B) dopamine receptor (Homo sapiens), sequence (P21918 whole entry): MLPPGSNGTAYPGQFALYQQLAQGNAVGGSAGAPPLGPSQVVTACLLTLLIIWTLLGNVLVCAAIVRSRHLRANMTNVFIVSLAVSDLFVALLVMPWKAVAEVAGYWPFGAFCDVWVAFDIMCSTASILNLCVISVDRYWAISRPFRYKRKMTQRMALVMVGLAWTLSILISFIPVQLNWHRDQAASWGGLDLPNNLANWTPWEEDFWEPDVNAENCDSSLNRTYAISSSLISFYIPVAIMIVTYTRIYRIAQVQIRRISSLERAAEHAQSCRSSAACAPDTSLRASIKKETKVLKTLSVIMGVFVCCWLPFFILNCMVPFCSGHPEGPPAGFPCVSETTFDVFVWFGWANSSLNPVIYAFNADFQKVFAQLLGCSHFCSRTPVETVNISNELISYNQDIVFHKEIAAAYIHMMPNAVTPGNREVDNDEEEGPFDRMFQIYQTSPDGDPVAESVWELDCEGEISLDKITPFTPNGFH
Sodium-dependent serotonin transporter (Homo sapiens), sequence (P31645 whole entry, looked up): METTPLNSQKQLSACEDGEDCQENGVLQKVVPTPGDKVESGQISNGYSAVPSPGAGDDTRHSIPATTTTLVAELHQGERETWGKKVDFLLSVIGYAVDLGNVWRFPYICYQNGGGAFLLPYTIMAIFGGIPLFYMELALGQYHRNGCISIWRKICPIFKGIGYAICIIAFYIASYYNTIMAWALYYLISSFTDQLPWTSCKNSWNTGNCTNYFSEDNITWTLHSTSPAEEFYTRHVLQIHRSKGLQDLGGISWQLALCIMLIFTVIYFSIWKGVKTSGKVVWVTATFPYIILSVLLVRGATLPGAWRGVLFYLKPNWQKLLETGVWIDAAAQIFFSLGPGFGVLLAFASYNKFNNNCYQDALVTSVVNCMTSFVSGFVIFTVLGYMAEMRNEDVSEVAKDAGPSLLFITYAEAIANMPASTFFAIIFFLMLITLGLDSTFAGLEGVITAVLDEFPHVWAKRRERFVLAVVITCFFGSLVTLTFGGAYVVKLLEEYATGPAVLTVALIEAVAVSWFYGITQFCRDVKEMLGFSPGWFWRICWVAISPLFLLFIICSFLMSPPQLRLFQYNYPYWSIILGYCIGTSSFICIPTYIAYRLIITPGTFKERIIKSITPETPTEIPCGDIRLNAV
5-hydroxytryptamine receptor 5A (Homo sapiens), sequence (P47898 whole entry): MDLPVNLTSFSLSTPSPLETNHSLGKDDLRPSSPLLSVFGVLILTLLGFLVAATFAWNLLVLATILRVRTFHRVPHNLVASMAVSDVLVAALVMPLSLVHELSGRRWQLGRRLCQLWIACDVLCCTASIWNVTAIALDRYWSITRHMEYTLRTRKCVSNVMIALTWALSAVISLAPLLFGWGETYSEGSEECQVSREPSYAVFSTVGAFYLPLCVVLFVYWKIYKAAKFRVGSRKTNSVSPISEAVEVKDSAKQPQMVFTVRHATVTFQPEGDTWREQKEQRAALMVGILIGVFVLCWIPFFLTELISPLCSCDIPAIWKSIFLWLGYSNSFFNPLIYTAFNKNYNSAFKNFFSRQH

In the case of `CCCOc1ccc(-c2nn3c(C)cc(C)nc3c2CC(=O)N(CC)CC)cc1`, in assay [1], the Ki was > 10 µM. Further, the inhibition in [2], in assay [3], in assay [4], in [5], in assay [6] and in assay [7] was < 50% throughout. Besides, the inhibition in assay [8], in assay [9], in assay [10], in [11], in assay [12] and in [13] was < 50% in each case. The inhibition in assay [14], in assay [15] and in assay [16] was < 50% in each case.
Regarding `C#CCOc1ccc(-c2nn3c(C)cc(C)nc3c2CC(=O)N(CC)CC)cc1`, the Ki in assay [1] is > 10 µM. For the same compound, the inhibition in assay [2], in [3], in [4], in assay [5], in assay [6] and in assay [7] was < 50% each time. In addition, the inhibition in assay [8], in assay [9], in assay [10], in [11], in [12] and in assay [13] was < 50% each time. In addition, the inhibition in assay [14], in [15] and in assay [16] was < 50% in each case.
On to `CCOc1ccc(-c2nn3c(C)cc(C)nc3c2CC(=O)N(CC)CC)cc1`, for which the inhibition constant Ki in assay [1] is > 10 µM. Further, the inhibition in assay [2], in assay [3], in assay [4], in assay [5], in assay [6] and in assay [7] was < 50% throughout. Also, the inhibition in assay [8], in assay [9], in assay [10], in [11], in [12] and in assay [13] was < 50% throughout. Further, the inhibition in assay [14], in assay [15] and in assay [16] was < 50% throughout.
For `CCCCOc1ccc(-c2nn3c(C)cc(C)nc3c2CC(=O)N(CC)CC)cc1`, the Ki in [1] is > 10 µM. Moreover, the inhibition in assay [2], in assay [3], in assay [4], in assay [5], in assay [6] and in assay [7] was < 50% throughout. For the same compound, the inhibition in assay [8], in assay [9], in assay [10], in assay [11], in assay [12] and in [13] was < 50% throughout. The inhibition in assay [14], in [15] and in [16] was < 50% each time.
